Reference: US20180360100A1 (SCIENTIFIC HOLDINGS, LLC, priority 2017, published 2018)
“Also recorded” adds a separate entry of the source.

Experiments:
[1] = Solubilities of pigments in diluents, terpenes and cannabinoids; conditions: in OBP (dipropylene glycol), nexus, terpenes, cannabinoids
Excerpt: Solubilities of Pigments. The present disclosure encompasses solubility embodiments.

CB1 = CB1 (Homo sapiens, UniProt P21554); conditions: cited from earlier work
CB2 = CB2 (Homo sapiens, UniProt P34972); conditions: cited from earlier work
cannabinoid receptors [2] = conditions: cited from earlier work
cannabinoid receptors [3] = conditions: cited from earlier work; remark: listed apart in the source

CB1, sequence (P21554 whole entry, species assumed): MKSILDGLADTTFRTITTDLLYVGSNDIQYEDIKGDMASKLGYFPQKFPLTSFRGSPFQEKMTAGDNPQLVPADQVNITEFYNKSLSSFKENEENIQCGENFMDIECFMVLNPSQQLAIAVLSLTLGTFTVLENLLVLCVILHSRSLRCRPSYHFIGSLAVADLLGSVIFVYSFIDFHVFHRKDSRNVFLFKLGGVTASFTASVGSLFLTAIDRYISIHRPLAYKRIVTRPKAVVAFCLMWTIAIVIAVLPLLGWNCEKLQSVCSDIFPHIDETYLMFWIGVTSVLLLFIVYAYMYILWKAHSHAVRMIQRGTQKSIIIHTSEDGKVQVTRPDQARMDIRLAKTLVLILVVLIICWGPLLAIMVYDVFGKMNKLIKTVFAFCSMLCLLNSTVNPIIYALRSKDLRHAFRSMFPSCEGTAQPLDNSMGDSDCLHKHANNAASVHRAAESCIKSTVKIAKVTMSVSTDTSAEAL
CB2, sequence (P34972 whole entry, species assumed): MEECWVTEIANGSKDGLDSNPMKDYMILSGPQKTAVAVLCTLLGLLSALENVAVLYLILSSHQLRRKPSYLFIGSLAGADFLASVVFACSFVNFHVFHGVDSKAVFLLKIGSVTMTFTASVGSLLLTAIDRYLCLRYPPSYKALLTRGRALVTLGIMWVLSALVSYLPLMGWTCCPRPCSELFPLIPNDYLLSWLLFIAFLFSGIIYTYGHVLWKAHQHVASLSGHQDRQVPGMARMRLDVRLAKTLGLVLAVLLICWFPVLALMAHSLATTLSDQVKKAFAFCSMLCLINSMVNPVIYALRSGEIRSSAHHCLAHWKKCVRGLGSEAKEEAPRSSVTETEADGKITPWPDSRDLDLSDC

| Molecule | solubility of pigment [1] | binding to CB1 (CB1) | binding to CB2 (CB2) | potentiation of binding of 2-arachidonoyl-glycerol (cannabinoid receptors [2]) | potentiation of activity of ligands of cannabinoid receptors (cannabinoid receptors [3]) |
| --- | --- | --- | --- | --- | --- |
| Anthocyanins | only soluble in OBP (dipropylene glycol), not it nexus or cannabinoids alone; also recorded: only soluble in dipropylene glycol (i.e. OBP), not in nexus or cannabinoids alone | – | – | – | – |
| CCCCCCCCCCCCCCCC(=O)OC(CO)CO [2-palmitoyl-glycerol] | – | do not bind | do not bind | potentiate the binding of 2-arachidonoyl-glycerol | – |
| carotene | soluble in both obp, nexus, terpenes, and cannabinoids | – | – | – | – |
| CC1=C[C@H](O)CC(C)(C)[C@H]1/C=C/C(C)=C/C=C/C(C)=C/C=C/C=C(C)/C=C/C=C(C)/C=C/C1=C(C)C[C@@H](O)CC1(C)C [Lutein] | soluble in both obp, nexus, terpenes, and cannabinoids | – | – | – | – |
| CCCCC/C=C\C/C=C\CCCCCCCC(=O)OC(CO)CO [2-linoleoyl-glycerol] | – | do not bind | do not bind | potentiate the binding of 2-arachidonoyl-glycerol | – |
| CCCCCCCCCCCCCCCC(=O)NCCO [palmitoylethanolamine] | – | do not bind | do not bind | – | potentiate activity of ligands of cannabinoid receptors |
| CCCCCCCCCCCCCCCCCC(=O)NCCO [stearoylethanolamine] | – | do not bind | do not bind | – | potentiate activity of ligands of cannabinoid receptors |
